Source: patent US9937192B2, “Combination therapy to treat mycobacterium diseases” (priority 2012, dated 2018)
Counter-ions that a name gives are not always drawn. Like-named read-outs stand apart in the source and are kept apart here.

Columns and labels:
[1] = system: M. tuberculosis; test: microbe, parasite or virus in culture; format: cell-based; details: Mycobacterium tuberculosis
[2] = system: nonreplicating M. tuberculosis; test: Low-Oxygen-Recovery Assay (LORA) MIC; format: cell-based; details: Mycobacterium tuberculosis, read-out: LORA MIC
From the text: MIC Determination in the Low-Oxygen-Recovery Assay (LORA) for Nonreplicating M. tuberculosis
Screening for new antimicrobial agents is routinely conducted only against actively replicating bacteria. However, it is now widely accepted that a physiological state of non-replicating persistence (NRP) is responsible for antimicrobial tolerance in many bacterial infections. In tuberculosis, the key to shortening the 6-month regimen lies in targeting this NRP subpopulation. […] Cho S H, Want S, Wan B, Hwang C H, Pauli G F, Franzblau S G; “Low-Oxygen-Recovery Assay for High-Throughput Screening of Compounds against Nonreplicating Mycobacterium tuberculosis” Antimicrob Agents Chemother. 2007 April; 51(4): 1380-1385 doi: 10.1128/AAC.00055-06.

[3] = Seven-Day Oral (Gavage) Toxicity and Toxicokinetics Study in Rats; format: in vivo, Crl:CD(SD) rats; details: male rats
From the text: Seven-Day Oral (Gavage) Toxicity and Toxicokinetics Study in Rats
Crl:CD(SD) rats were obtained from Charles River Laboratories of Stone Ridge, N.Y. The animals were laboratory bred and experimentally naïve. Rats were chosen because they are a species that is commonly used for nonclinical toxicity evaluations.
Animals received the test article or vehicle by oral gavage for 7 consecutive days and were terminated the day following completion of dosing. The first day of dosing was designated as Day 1 of the study. The animals were evaluated for changes in clinical signs, body weight, and other parameters as described below.
The vehicle and test article were administered by oral gavage once daily for 7 consecutive days at a dose volume of 10 mL/kg body weight for Group A and Groups B-D, respectively. The test article and vehicle were administered by oral gavage twice daily, approximately 8 hours apart, for 7 consecutive days at a dose volume of 10 mL/kg body weight for Group E and Group F, respectively. The actual volume administered to each animal was calculated and adjusted based on the most recent body weight of each animal.
During the treatment period, daily cageside observations were made and recorded predose and postdose (following the first dose only). The postdosing observations made during treatment occurred at the following times based on Cmax/Tmax for the two compounds from previous studies:
Prior to start of dosing, body weights were measured for randomization on Day 1. During the treatment, body weights were measured on Day 1 and Day 7. In addition, fasted body weights were measured prior to necropsy for calculation of organ/body weight ratios.
Throughout the study, food consumption was measured daily starting 3 days prior to start of dosing.
Blood samples for evaluation of hematology, coagulation, and serum chemistry parameters were collected from all animals from the retro-orbital plexus (under CO2/O2 anesthesia, for the main study animals) or jugular vein cannula (for the toxicokinetic animals) prior to necropsy. Due to residual heparin used to keep the cannulas patent for the toxicokinetic animals, coagulation samples from these rats, were not able to be analyzed. The animals were fasted overnight prior to blood collection. On the day of blood collection for clinical pathology analyses, the animals were not necropsied until after the blood was collected and the samples judged to be acceptable by the clinical pathology group.
On the 1st and 7th day of dosing, blood samples (approximately 0.5 mL/sample) were collected from the jugular vein cannula for all toxicokinetic animals at the timepoints listed below into K3EDTA-containing tubes. […] Prior to each collection, a small sample of blood (with heparin blocking solution) was removed from the cannula and discarded. A new syringe was placed on the cannula, and the protocol-required sample was taken. The syringe with the blood sample was removed, and a new syringe with saline attached to the cannula. Blood volume was replaced with an equal volume of saline and then blocking solution placed in the cannula. Each animal was returned to its cage until the next collection timepoint.
For all animals euthanized at scheduled necropsies, the kidneys, liver, and prostate gland were weighed. Following weighing, an approximate 1 gram sample of liver and kidney was weighed, transferred to Precellys 7 mL CK28 Tissue Homogenizing tubes (Cat. No. 0904-01), snap-frozen, and analyzed.
For all animals scheduled for the terminal necropsy, the kidneys, liver, and prostate were embedded in paraffin, sectioned and stained with hematoxylin and eosin for further examination by light microscopy. For Groups A, D, E, and F only, the remaining tissues listed above were embedded in paraffin, sectioned and stained with hematoxylin and eosin for further examination by light microscopy. […]

[4] = system: intracellular M. tuberculosis in THP-1 cells; test: microbe, parasite or virus in culture; format: cell-based; details: Mycobacterium tuberculosis, H37RA
[5] = system: M. avium; test: MIC in bacterial broth culture (7H9 with ADC, visual or resazurin); format: cell-based; details: Table 31, duplicate values
[6] = system: Non-Replicating (NRP) M. tuberculosis H37Ra; test: Non-replicating (NRP) M. tuberculosis H37Ra (luciferase) culture assay; format: cell-based; details: Mycobacterium tuberculosis, 336 h, read on day 14
[7] = system: intracellular M. tuberculosis in J774 cells; test: Efficacy against intracellular M. tuberculosis (luciferase) in J774 cells; format: cell-based; details: Mycobacterium tuberculosis, J774, 120 h
[8] = system: M. tuberculosis H37Rv; test: Minimum bactericidal concentration (MBC) assay; format: cell-based; details: for Log Reduction: vs untreated control
[9] = 300 mg/kg twice a day vs controls treated twice a day

CCNC(=O)Nc1nc2cc(-c3cnc(C(C)(C)O)nc3)c(F)c([C@H]3CCCO3)c2[nH]1 [Compound 23A, methanesulfonic acid salt of 1-ethyl-3-[6-fluoro-5-[2-(1-hydroxy-1-methyl-ethyl)pyrimidin-5-yl]-7-[(2R)-tetrahydrofuran-2-yl]-1H-benzimidazol-2-yl]urea]
MIC ([1]; GN9, Table 31, Mtb GN9, duplicate values, read-out: MIC): 0.03 µg/mL | MIC ([1]; H37RA, read-out: MIC, Broth): 0.01 µg/mL | MIC ([1]; H37RV, Table 33, M. tuberculosis strain H37Rv, read-out: MIC): 0.125 µg/mL | MIC ([1]; Table 32, […], duplicate values, read-out: MIC): 0.125 µg/mL | MIC ([1]; Table 33, M. tuberculosis strain AH13, read-out: MIC): 0.5 µg/mL | MIC ([1]; Table 33, M. tuberculosis strain BW9, read-out: MIC): 0.125 µg/mL | MIC ([1]; Table 33, M. tuberculosis strain H10460, read-out: MIC): 0.5 µg/mL | MIC ([1]; Table 33, M. tuberculosis strain MC19062, read-out: MIC): 0.125 µg/mL | MIC ([1]; Table 33, M. tuberculosis strain W10, read-out: MIC): 0.125 µg/mL | MIC [2]: 0.25 µg/mL | AST [3, 9]: statistically higher | mean ALT [3, 9]: statistically higher | mean calcium ion concentration (CA) [3, 9]: statistically lower | dose levels at which no adverse toxicity was demonstrated ([3]; 7 days oral gavage): ≤ 600 mg/kg/day | adverse observations or effects on mean body weight ([3]; 7 days oral gavage, all dose groups): No adverse observations or effects on mean body weight | histopathological findings ([3]; any dose regimen): No test article-related histopathological findings | NOEL (No-Observable-Effect-Level) ([3]; once a day for 7 days orally via gavage): 100 mg/kg | exposures for different dosage levels ([3]; toxicokinetics): dose related | Mean food consumption ([3]; twice daily 300 mg/kg, not considered adverse): reduced | IC50 ([4]; THP-1, 120 h, read-out: Mtb H37Ra in THP1 Cells (IC50)): 0.03 µg/mL | MIC ([4]; read-out: MIC, Macrophage Cells): 0.03 µg/mL | MIC ([5]; Mycobacterium avium, M. avium 103, read-out: MIC): 0.12 µg/mL | MIC ([5]; Mycobacterium avium, M. avium 3404.4, read-out: MIC): 0.23 µg/mL | MIC ([5]; Mycobacterium avium, M. avium Far, read-out: MIC): 0.23 µg/mL | MIC ([5]; M. avium 103): 0.23 µg/mL | IC50 [6]: 1 µg/mL | IC50 ([7]; ERDMAN, read-out: Mtb Erdman in J774 Cells (IC50)): < 0.17 µg/mL | IC50 ([7]; H37RV, read-out: Mtb H37Rv in J774 Cells (IC50)): 0.21 µg/mL | IC50 ([7]; read-out: Mtb CDC1551 in J774 Cells (IC50)): 0.12 µg/mL | Log cfu ([8]; 0.039 ug/mL): 5.36 | Log Reduction ([8]; 0.039 ug/mL): 0.77 | Log cfu ([8]; 0.078 ug/mL): 3.75 | Log Reduction ([8]; 0.078 ug/mL): 2.38 | Log cfu ([8]; 0.156 ug/mL): 1.04 | Log Reduction ([8]; 0.156 ug/mL): 5.09 | Log cfu ([8]; 0.312 ug/mL): 1.32 | Log Reduction ([8]; 0.312 ug/mL): 4.81 | Log cfu ([8]; 0.625 ug/mL): 1.04 | Log Reduction ([8]; 0.625 ug/mL): 5.09
